The text below walks through data of patent US20260098017A1, “NOVEL AROMATIC RING DERIVATIVE CONTAINING AMIDE SUBSTITUTION AND USE THEREOF” (TIANJIN PHARMACEUTICAL BIOTECHNOLOGY CO., LTD., priority 2022, published 2026).

For orientation: IC50 means the concentration that inhibits the measured activity by half.

Series [1] has as its target Ba/F3 cell line expressing TYK2 (Homo sapiens, UniProt P29597, cells depend on it, form not given). As to the kind of experiment: In vitro cellular inhibition assay (Ba/F3 cell proliferation, CellTiter-Glo). It counts as cell-based. To be noted: read-out: IC50 (the source's name). In a few lines:
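Ba/F3 cells dependent on TYK2 were exposed to serially diluted compound, then viability was read by CellTiter-Glo luminescence. Inhibition (%) was calculated from RLU relative to max and min controls, and IC50 was obtained by curve fitting.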

A further series concerns the target TYK2 JH2 pseudokinase (Homo sapiens, UniProt P29597). As to the kind of experiment: TYK2 JH2 enzyme binding assay in vitro (TR-FRET). How it is done:
Instrumentation: Envision microplate reader (PerkinElmer), ECHO550 (LABCYTE).
Method: the inhibitory effects of compounds on TYK2 JH2 pseudokinase was tested using time-resolved fluorescence resonance energy transfer (TR-FRET) method.
Procedure: compounds were prepared into 10 mM stock solutions using DMSO, which were further diluted into compound dilutions (200×) with different concentration gradients in DMSO, and the compound dilutions (200×) were transferred to a 384-well assay plate using an Echo instrument. […] TYK2 JH2 pseudokinase, Tb antibody, and Tracer working solutions were prepared using the dilution buffer, respectively. 5 uL of TYK2 JH2 pseudokinase working solution (final concentration 0.5 nM) was added to a 384-well assay plate, and centrifuged at 1000 rpm for 30 s. 5 uL of Tb antibody (final concentration 1×) was added to the 384-well assay plate, and centrifuged at 1000 rpm for 30 s. 5 uL of Tracer (final concentration 0.5 nM) was added to the 384-well assay plate, and centrifuged at 1000 rpm for 30 s. Incubation was performed at room temperature for 60 min, and then at 4° C. overnight.
Data Analysis: XLfit, a software developed by IDBS and integrated into the Microsoft Excel environment, was used to process and analyze the test data.
Background: TR-FRET usually uses a lanthanide donor and a delayed reading to cut background.

For the next series, the target named is JAK1 JH2 pseudokinase (Homo sapiens, UniProt P23458). As to the kind of experiment: JAK1 JH2 enzyme binding assay in vitro (TR-FRET). Conditions: read-out: JAK 1 JH2 IC50. How it is done:
Instrumentation: Envision microplate reader (PerkinElmer), Echo (LABCYTE)
Method: in this experiment, the inhibitory effects of compounds on JAK1 JH2 pseudokinase was tested using time-resolved fluorescence resonance energy transfer (TR-FRET) method.
Procedure: compounds were prepared into 10 mM stock solutions using DMSO, which were further diluted into compound dilutions with different concentration gradients in DMSO, and the compound dilutions with 200× final concentration were transferred to a 384-well assay plate using an Echo instrument. The preparation of the following 1× assay working solution: HEPES pH7.5 at a final concentration of 20 mM, MgCl2 at a final concentration of 10 mM, Brij-35 at a final concentration of 0.015%, DTT at a final concentration of 2 mM, BSA at a final concentration of 50 ug/mL. JAK1 JH2 pseudokinase with 3× final concentration, Tb antibody and Tracer were prepared using their respective 1× working solution. 5 uL of JAK1 JH2 pseudokinase was added to a 384-well assay plate, and centrifuged at 1000 rpm for 30 s. 5 uL of Tb antibody was added to the 384-well assay plate, and centrifuged at 1000 rpm for 30 s. 5 uL of Tracer was added to the 384-well assay plate, and centrifuged at 1000 rpm for 30 s. Incubation was performed at room temperature for 60 min, and then at 4° C. overnight. Finally, the 495 nm/520 nm fluorescence signal ratio was measured using the Envision microplate reader (PerkinElmer).
Data Analysis: XLfit, a software developed by IDBS and integrated into the Microsoft Excel environment, was used to process and analyze the test data. […] Thereafter, the concentration and corresponding inhibition rate data were imported into the XLfit software, and the Dose Response One Site 205 model within the software was employed to fit the inhibition rate-concentration curve by four-parameter method, and the IC50 value of the compound was calculated.

For another series, the target named is JAK1 JH1 kinase (Homo sapiens, UniProt P23458). As to the kind of experiment: JAK1 JH1 enzyme assay in vitro (TR-FRET). It counts as biochemical. Conditions: read-out: JAK 1 JH1 IC50.
The target in another series is JAK3 JH1 kinase (Homo sapiens, UniProt P52333). As to the kind of experiment: JAK3 JH1 enzyme assay in vitro (TR-FRET). The series is classed as biochemical. To be noted: TR-FRET; read-out: JAK 3 JH1 IC50.
The test system of another series is SD rats. As to the kind of experiment: Four-week repeat-dose toxicity study in rats. It counts as in vivo. Conditions: rat, 28 days, 2% cream 500 mg bid topical, 100 mg/kg. As for the experimental part:
Each group contained 10 animals, with an equal number of males and females.
The treatment lasted for four consecutive weeks (28 days).
• Daily clinical observation and body weight measurement; • After the last administration, rats were fasted for more than 16 h, anesthetized on the next day, and blood was collected from abdominal aorta. Tests such as hematology (EDTA-2K anticoagulation), blood biochemistry (serum), coagulation function (separated plasma with sodium citrate anticoagulation) and the like were respectively carried out; • After euthanization of the animals, the tissue organs were dissected and observed in general, and organ weights and coefficients (heart, liver, spleen, kidney, thymus) were determined; • The skin and lung tissues of the administration site were taken for HE staining to observe the changes in epidermal thickness, dermal inflammatory cells and pulmonary lesions.

Chain of JAK3 JH1 kinase (P52333 822-1111 limits assumed): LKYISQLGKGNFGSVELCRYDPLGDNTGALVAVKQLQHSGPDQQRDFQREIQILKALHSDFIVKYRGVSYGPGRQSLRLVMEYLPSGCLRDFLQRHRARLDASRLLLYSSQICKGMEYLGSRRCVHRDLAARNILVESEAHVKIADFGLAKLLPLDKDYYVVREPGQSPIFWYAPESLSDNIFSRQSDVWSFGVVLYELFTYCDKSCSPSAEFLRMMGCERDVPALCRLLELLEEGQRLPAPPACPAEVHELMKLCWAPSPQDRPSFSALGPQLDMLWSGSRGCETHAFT
Chain of TYK2 JH2 pseudokinase (P29597 589-875 limits assumed): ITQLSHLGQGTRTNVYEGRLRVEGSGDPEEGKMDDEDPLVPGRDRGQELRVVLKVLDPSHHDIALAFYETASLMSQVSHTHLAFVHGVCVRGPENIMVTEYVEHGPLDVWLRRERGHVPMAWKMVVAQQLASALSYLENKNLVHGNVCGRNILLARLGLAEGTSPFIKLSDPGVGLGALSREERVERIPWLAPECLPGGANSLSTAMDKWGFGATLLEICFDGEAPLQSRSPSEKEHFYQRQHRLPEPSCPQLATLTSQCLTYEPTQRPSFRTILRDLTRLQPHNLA
Chain of JAK1 JH2 pseudokinase (P23458 583-855 limits assumed): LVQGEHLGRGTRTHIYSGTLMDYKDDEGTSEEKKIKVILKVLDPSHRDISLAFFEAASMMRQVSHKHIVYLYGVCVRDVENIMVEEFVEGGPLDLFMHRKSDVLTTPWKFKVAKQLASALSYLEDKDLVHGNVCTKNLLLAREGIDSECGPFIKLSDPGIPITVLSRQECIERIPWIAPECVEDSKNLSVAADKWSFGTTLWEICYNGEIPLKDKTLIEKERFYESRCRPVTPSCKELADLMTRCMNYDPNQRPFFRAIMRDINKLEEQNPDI
Chain of JAK1 JH1 kinase (P23458 875-1153 limits assumed): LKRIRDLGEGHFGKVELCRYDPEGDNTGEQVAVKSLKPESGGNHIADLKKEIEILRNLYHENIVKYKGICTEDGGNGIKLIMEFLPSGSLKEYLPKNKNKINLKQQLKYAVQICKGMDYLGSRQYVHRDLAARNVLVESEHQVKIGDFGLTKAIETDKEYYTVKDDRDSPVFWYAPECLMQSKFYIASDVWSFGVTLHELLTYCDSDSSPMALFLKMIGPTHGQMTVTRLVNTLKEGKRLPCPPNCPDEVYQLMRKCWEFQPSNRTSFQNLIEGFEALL

For the compound `[2H]C([2H])([2H])NC(=O)c1nnc(NC(=O)C2CC2)cc1Nc1cccc(C(=O)Nc2cccc(C)c2)c1OC` [Example 3], the GI50 in series [1] lay within 1 to 5 nM. Besides, the IC50 on TYK2 JH2 pseudokinase stood at 0.274 nM. For the same compound, the IC50 on JAK1 JH2 pseudokinase came to 9.74 nM. At JAK1 JH1 kinase, the IC50 is above 10 µM. Also, the IC50 on JAK3 JH1 kinase was above 10 µM. Besides, in the series with SD rats, the “Effects on general state, body weight, organ coefficient, skin and pulmonary pathology, and other hematological, coagulation and blood biochemical indicators” value was “no significant effects”; the “Hematology Gran” value is given as 1.7 ± 1.0 ×10^9/L; the “Hematology Lymph” value was 6.4 ± 2.7 ×10^9/L; the “Hematology Mono” value was 0.2 ± 0.1 ×10^9/L. In addition, the “Hematology PLT” value with SD rats is 1001.8 ± 408.1 ×10^9/L.
